Experimental data reported in a melting point compilation (Tetko et al.; mined from patent text by program, amines drawn as free bases though some values may be those of a salt).

Structure (SMILES) | melting point
Cc1nc(CN2CCN(c3cccc(Br)c3)CC2)cs1 | 82 °C
COc1ccc(C#N)cc1/C=C/C(=O)O | 252 to 253 °C
CCC(=CC(CNC(=O)Cc1cccnc1)=NO)C(C)[N+](=O)[O-] (stereo unspecified) | 123 to 125 °C
CC(=O)NN=C(C)c1ccc(C)nc1 | 178 °C
COc1ccc(CCNS(=O)(=O)Cc2ccc3[nH]cc(CCN(C)C)c3c2)cc1 | 67 to 70 °C
COc1ccc2c(c1)C(O)(CCNC(C)=O)CCC2 (stereo unspecified) | 106 to 109 °C
CC1(C)Cc2cc(OCC(=O)O)c(Cl)c(Cl)c2C1=O | 182 °C
CC[C@@H](C)[C@H](CC(C(=O)O)C(=O)O)C(=O)OC | 98 °C
Cc1cn(C)cc1C(=O)O | 166 to 168 °C
O=C(NC1C2CC3CC(C2)CC1C3)c1cc(-c2ccc(Cl)cc2)n(Cc2ccc(Cl)cc2Cl)n1 (stereo unspecified) | 154 °C
O=C1NCCN1Cc1ccc(Cl)c(Cl)c1 | 129 to 130 °C
CCOC(=O)c1cn(-c2nc(F)cs2)c2nc(N3CCC(NC(=O)OC(C)(C)C)C3)ccc2c1=O (stereo unspecified) | 233 to 234 °C
CCC1=Nc2ccccc2CC(c2cccnc2)N1C (stereo unspecified) | 72 to 75 °C
COc1ccc(CCC(=NNc2ccc(C3=NNC(=O)CC3C)cc2)c2ccc(O)cc2O)cc1OC (stereo unspecified) | 135 to 140 °C
Nc1cc2c(Nc3ccc(Cl)c(Br)c3)ncnc2cn1 | 271 to 274 °C
NC(=O)NCCC[C@H](NCC(O)C(O)C(O)C(O)CO)C(=O)O (stereo partly specified) | 176 °C
CCOC(=O)C1=C(C)NN=C(C(=O)O)C1c1cccc(Cl)c1 (stereo unspecified) | 182 °C
CCCOc1ccc(OC)cc1C1=NC(=O)C2=NC=NC2=N1 | 233 to 234 °C
COc1cc2nc(SCc3cc(N(C)C)c(Cl)cn3)[nH]c2cc1OC | 116 to 117 °C
O=[N+]([O-])c1cc2nc(O)c(O)nc2c2nccnc12 | > 300 °C
O=C1Nc2cc(F)ccc2N2CCN(CCCCc3ccncc3)CC12 (stereo unspecified) | 262 to 264 °C
N=C(N)NCCCCOc1cccc2c1NC(=O)C(CC(=O)O)C2 (stereo unspecified) | 207 to 210 °C

Structure (SMILES) | melting point
COc1cc(CO)c(OC)cc1Cl | 89 to 90 °C
N=C1NCCN1Cc1ccccc1 | 165 to 167 °C
CCOCc1nc2c(N)nc(C)c(C)c2n1NCCCNC(=O)NC(C)C | 203 to 205 °C
O=C1CCCN1C1=CC(CF)(CF)Oc2ccc(C(F)(F)F)cc21 | 125 to 127 °C
CNC(=S)Nc1ccc(NNC=O)cc1 | 176 to 178 °C
C#CCON=Cc1cc(Cl)ccc1OC(=O)NC | 97 to 100 °C
CCOC(=O)c1ncn2c1CN(C)C(=O)c1ncccc1-2 | 252 to 254 °C
O=c1[nH]nc(-c2c(Cl)ccc3cc(Cl)cnc23)o1 | 87 °C
N#CC1=C(c2ccncc2)Nc2n[nH]cc2C1c1cccc2nonc12 (stereo unspecified) | 236 °C
CC(O)C1CCC(CNC(=O)OC(C)(C)C)CC1 (stereo unspecified) | 75 to 76 °C
CCOC(=O)c1cnn(-c2c(Cl)cc(C(F)(F)F)cc2Cl)c1C | 61 to 62 °C
CNC1c2ccccc2CC1N1CCCCC1 (stereo unspecified) | > 260 °C
COC(C)(CC(=O)Nc1cccc(OC(=O)NC2CCCCC2)c1)OC | 163 °C
CC1(C)CC(OC(=O)c2cccc(C(=O)OC3CC(C)(C)N(OC4CCCCC4)C(C)(C)C3)c2)CC(C)(C)N1OC1CCCCC1 | 135 to 141 °C
CN1CCN(C2=Nc3cscc3C(=CC#N)c3cscc32)CC1 | 148 to 151 °C
COc1cc(Nc2c(C#N)cnc3cc(-c4ccc(CN5CCOCC5)cc4)sc23)c(Cl)cc1Cl | 244 to 245 °C
CNC(=S)SCCC(=O)N1CCC[C@H]1C(=O)O | 127 to 129 °C
CC#CCOc1cc(OCC#CC)ncn1 | 82.9 °C
N#Cc1ccc(N2C(=O)N(CCCC(=O)O)C3(CCSCC3)C2=O)cc1C(F)(F)F | 197 to 198 °C
ON=C1c2ccccc2CCC1Br (stereo unspecified) | 125 to 131 °C
O=C(O)COc1nc2cc(Cl)c3cccnc3c2o1 | 214 to 215 °C

Second part, the molecule after the results:

melting point | Structure (SMILES)
206 to 207 °C | O=[N+]([O-])c1cccc2c3c(cc([N+](=O)[O-])c12)NCC3CCl (stereo unspecified)
216 to 218 °C | CC(C)c1c(-c2ccccc2)[nH]c2nccnc12
152 to 153 °C | ClC(=NNc1ccccc1)c1ccc(Br)cc1
180 °C | Oc1ccccc1NC(=S)NCc1ccncc1
186 to 189 °C | O=C(O)CCCc1cc2nc(Cl)ccc2n1S(=O)(=O)c1cccc2cccnc12
135 to 137 °C | COc1cc(OC(C)(C)C(=O)O)c(-c2cccs2)cc1C=CC(=O)c1ccc(C(=O)O)cc1
81 to 82 °C | O=C(NN=CC(Cl)(Cl)Cl)c1cccc(Oc2cccc(C(F)(F)F)c2)n1
165 to 167 °C | O=C1N(CCN(c2ccccn2)c2ccccn2)c2ccccc2C12COc1cc3c(cc12)OCO3 (stereo unspecified)
117 to 119 °C | CCN(CC)c1ccc2c(c1)Oc1cc(OC)c(N(c3ccccc3)c3ccccc3)cc1C2c1ccccc1C(=O)OC (stereo unspecified)
95 to 97 °C | Cc1cc(N2CCN(CCc3ccccc3)C2=O)sc1C(=O)NCc1cccnc1
121 °C | CCN(c1ccccc1)C1CC(C)N(C(C)=O)c2ccc(-c3ccccc3)cc21 (stereo unspecified)
146 to 147 °C | CC(C)NS(=O)(=O)Cc1ccc([N+](=O)[O-])cc1
130 to 131 °C | O=C(Nc1ccc(-n2nc(C(F)(F)F)cc2OC(F)F)cc1)c1ccccc1F
166 to 168 °C | Nc1ccc(C#Cc2ccc(C#Cc3ccccc3)cc2[N+](=O)[O-])cc1
96 °C | CC1OC(Oc2ccc(C(=O)c3ccc(C#N)cc3)cc2)C(O)C(O)C1O (stereo unspecified)
181 to 182 °C | CC(C)c1ccc2c(c1)c(Sc1ccccc1)c(C(C)C(=O)O)n2Cc1ccc(Cl)cc1 (stereo unspecified)
113 to 114 °C | O=S(=O)(Cl)c1cccc2c(I)cccc12
172 to 173 °C | CC(=O)NC(=S)c1nc2cc(Cl)c(Cl)cc2n1S(=O)(=O)N(C)C
76 to 78 °C | CC(=O)N[C@H](COCc1cc(C)cc(C)c1)Cc1ccccc1
71 to 72 °C | COc1cc(Br)c(C(=O)c2ccccc2)cc1OC

melting point | Structure (SMILES)
114 to 115 °C | CC(=O)c1c(F)c(F)c(OCCOc2ccc3ccccc3c2)c(F)c1F
97 to 98 °C | COC(=O)c1ccc([N+](=O)[O-])c(OCCO)c1
147 to 149 °C | O=c1cc(NCCN2CCN(c3ccccc3)CC2)cn[nH]1
123 to 124 °C | CCCC(O)C(C)C(=O)n1c(=O)oc2ccccc21 (stereo unspecified)
119 to 120 °C | CC(C)(C)C(F)(F)c1ccc(C[C@@H](NC(=O)c2cccc3c2C=CCCC3)[C@@H](O)c2cccc(Cl)c2)cc1 (racemic)
107 to 109 °C | COc1ccc(Cn2c(=O)c3ccc(Cl)cc3n(CCCCBr)c2=O)cc1
76 to 83 °C | COC(=O)c1ccc(C(F)(F)F)nc1S(=O)(=O)NC(C)(C)C
172 to 174 °C | CC(C)CNCc1cc2cc(NC(=O)c3ccc(C#CC4(O)CC4)cc3)ccc2n1C
125 to 127 °C | CS(=O)(=O)c1ccc(-c2cc(C(=O)CCCCCO)nn2C2CCCCC2)cc1
78 to 85 °C | COc1cc(C2CCN(C3COC3)CC2)ccc1Nc1ncc2ccc(-c3ccccc3OC)n2n1
56 to 57 °C | CCOC(=O)COc1ccc(CSCC(=O)OCC)cc1NC(=O)c1ccc(OCCCCc2ccccc2)cc1
254 to 255 °C | CC(=O)NS(=O)(=O)c1ccc(-n2sc3ccccc3c2=O)cc1
150 to 157 °C | O=Cc1ccc(NS(=O)(=O)c2ccccc2)cc1O
223 to 224 °C | COC(=O)c1cc(OC)cc(-c2ccc(NC(C)=O)cc2)n1
58 to 61 °C | COc1cc(N)c(Cl)cc1C(=O)NCC1CCN(CCCCCN2C(=O)c3ccccc3C2=O)CC1
69 to 72 °C | COc1ccc(C(=O)c2c(N(C)C)sc3cc(OCc4ccccc4)ccc23)cc1OC
106 to 109 °C | COCCOCCn1cc(C(=O)NCc2ccc(Cl)cc2)c(=O)c2cc(CN(C)[C@H](C)[C@@H](O)c3ccccc3)ccc21
158 to 159 °C | O=C(O)C(O)=CC(=O)c1cc(Cc2ccccc2)cn(Cc2ccccc2)c1=O
115 to 116 °C | CC(c1ccc(-c2ccccc2)c(F)c1)c1cc(N(C)C(=S)NC(=O)c2ccccc2)on1 (stereo unspecified)
260 to 264 °C | COc1ccccc1N(C(N)=O)c1ccc(CC(=O)O)cc1C

melting point | Structure (SMILES)
172 to 173 °C | CC(C)(C)Cc1c(CC(C)(C)C(=O)O)n(Cc2ccc(Cl)cc2)c2ccc(OCc3ccc4occc4n3)cc12
166 to 167 °C | CC1(C)NC(=O)N(c2ccc(F)cc2)C1=O
59 to 61 °C | CC(C)(C)OC(=O)N1CCCC(c2ccc3c(c2)C2(CO3)C(=O)N(Cc3ccc(C(F)(F)F)o3)c3ccccc32)C1 (stereo unspecified)
231 to 232 °C | Cc1sc(C(=O)O)c2c1-c1c(cnn1Cc1ccccc1)CC2
78 to 79 °C | COc1cc2c(cc1OCc1ccccc1)CCN(Cc1cccc(O)c1)C2
87 to 88 °C | COc1ccc(CN2C(=O)C3CC(c4ccccc4)(C3)C2=O)cc1
138 to 140 °C | O=C1CC2CCSc3ccccc3C2=NN1c1ccccc1 (stereo unspecified)
82.5 °C | O=Cc1ccc(OCCCc2ccccc2)c([N+](=O)[O-])c1
83 to 84 °C | CCOC(=O)CC=Cc1ccc2ccccc2c1O
133 to 135 °C | CC(C)(C(=O)O)c1nc2ccc(NCCCN3CCC(OC(c4ccccc4)c4ccccc4)CC3)nn2c1Cl
222 to 224 °C | O=C(O)C(O)c1ccc2nc(-c3ccc(Cl)cc3)oc2c1 (stereo unspecified)
190 to 192 °C | CCOC(=O)c1cnn2c(O)cc(-c3ccc(Cl)cc3)nc12
97 to 103 °C | COC(=O)C=Cc1ccc(OCC(C)NCC(O)c2cccc(Cl)c2)cc1 (stereo unspecified)
44 to 45 °C | O=CCCc1cn(-c2cccnc2)c2ccccc12
180 to 182 °C | OCc1cc(CO)n(C(c2ccccc2)(c2ccccc2)c2ccccc2)n1
114 to 116 °C | CC(=O)NC1(c2ccc(C(C)O)cc2)CC1 (stereo unspecified)
203 to 204 °C | COc1cc(/C=C2\C(=O)NC(=O)\C2=C\c2ccccc2)ccc1OC1CCCC1
237 °C | COC(=O)c1cccc(OCC(=O)NN=C2C(=O)Nc3ccc(I)cc32)c1
